{"source": "ChEMBL document CHEMBL5230103", "about": "“Hydroxamic acid hybrids as the potential anticancer agents: An Overview” (Eur J Med Chem, 2020)", "key": {"Histone deacetylase": {"molecular_target": "Histone deacetylase", "experiment": "Inhibition of HDAC (unknown origin)", "assay_type": "protein assay, Homo sapiens"}, "PC-3 [1]": {"system": "PC-3", "experiment": "Cytotoxicity against human PC-3 cells assessed as inhibition of cell growth by SRB assay", "assay_type": "functional, cell-based"}, "MV4-11": {"system": "MV4-11", "experiment": "Cytotoxicity against human MV4-11 cells assessed as inhibition of cell growth by SRB assay", "assay_type": "functional, cell-based"}, "RPMI-8226": {"system": "RPMI-8226", "experiment": "Cytotoxicity against human RPMI-8226 cells assessed as inhibition of cell growth by MTS assay", "assay_type": "functional, cell-based"}, "A549": {"system": "A549", "experiment": "Cytotoxicity against human A549 cells assessed as inhibition of cell growth by MTT assay", "assay_type": "functional, cell-based"}, "K562": {"system": "K562", "experiment": "Cytotoxicity against human K562 cells assessed as inhibition of cell growth by MTT assay", "assay_type": "functional, cell-based"}, "PC-3 [2]": {"system": "PC-3", "experiment": "Cytotoxicity against human PC-3 cells assessed as inhibition of cell growth by MTT assay", "assay_type": "functional, cell-based"}, "MDA-MB-231": {"system": "MDA-MB-231", "experiment": "Cytotoxicity against human MDA-MB-231 cells assessed as inhibition of cell growth by MTT assay", "assay_type": "functional, cell-based"}, "MCF7": {"system": "MCF7", "experiment": "Cytotoxicity against human MCF7 cells assessed as inhibition of cell growth by MTT assay", "assay_type": "functional, cell-based"}, "HepG2": {"system": "HepG2", "experiment": "Cytotoxicity against human HepG2 cells assessed as inhibition of cell growth by MTT assay", "assay_type": "functional, cell-based"}, "HL-60": {"system": "HL-60", "experiment": "Antiproliferative activity against human HL-60 cells assessed as inhibition of cell growth by MTT assay", "assay_type": "functional, cell-based"}, "Histone deacetylase 2": {"molecular_target": "Histone deacetylase 2 (Homo sapiens, UniProt Q92769)", "sequence (Q92769 whole entry)": "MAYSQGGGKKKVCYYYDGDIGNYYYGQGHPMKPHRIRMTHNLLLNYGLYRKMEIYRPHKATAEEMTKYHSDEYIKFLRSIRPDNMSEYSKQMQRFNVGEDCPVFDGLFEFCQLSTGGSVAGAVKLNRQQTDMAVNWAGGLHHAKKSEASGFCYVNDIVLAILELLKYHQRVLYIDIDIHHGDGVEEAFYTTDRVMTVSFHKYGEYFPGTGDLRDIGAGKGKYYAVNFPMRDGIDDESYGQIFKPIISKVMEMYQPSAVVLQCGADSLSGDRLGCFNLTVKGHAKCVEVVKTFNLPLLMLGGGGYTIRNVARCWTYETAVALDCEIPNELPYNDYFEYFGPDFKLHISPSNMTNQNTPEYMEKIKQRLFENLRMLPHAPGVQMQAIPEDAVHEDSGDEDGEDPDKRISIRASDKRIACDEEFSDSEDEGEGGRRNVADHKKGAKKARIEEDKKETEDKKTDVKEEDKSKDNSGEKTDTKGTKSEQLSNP", "experiment": "Inhibition of HDAC2 (unknown origin)"}, "SW-620": {"system": "SW-620", "experiment": "Cytotoxicity against human SW620 cells assessed as inhibition of cell growth by MTT assay", "assay_type": "functional, cell-based"}, "ASPC1": {"system": "ASPC1", "experiment": "Cytotoxicity against human ASPC1 cells assessed as inhibition of cell growth by MTT assay", "assay_type": "functional, cell-based"}, "HCT-116": {"system": "HCT-116", "experiment": "Cytotoxicity against human HCT-116 cells assessed as inhibition of cell growth by MTT assay", "assay_type": "functional, cell-based"}}}
{"compound": "CC(C)n1cnc2c(-c3ccc(OCCCCCCCC(=O)NO)cc3)nc(N3CCOCC3)nc21", "values": [{"measurement": "IC50", "setting": "Histone deacetylase", "value": 0.278, "unit": "µM"}, {"measurement": "IC50", "setting": "PC-3 [1]", "value": 0.97, "unit": "µM"}, {"measurement": "IC50", "setting": "MV4-11", "value": 0.97, "unit": "µM"}]}
{"compound": "CCCCCCSc1ncc(C(=O)NO)c(N(Cc2ccccc2)S(=O)(=O)c2ccc(OC)cc2)n1", "values": [{"measurement": "IC50", "setting": "RPMI-8226", "value": "> 7.8", "unit": "µM"}]}
{"compound": "CC(C)n1cnc2c(-c3cccc(OCCCCCCC(=O)NO)c3)nc(N3CCOCC3)nc21", "values": [{"measurement": "IC50", "setting": "Histone deacetylase", "value": 0.035, "unit": "µM"}, {"measurement": "IC50", "setting": "PC-3 [1]", "value": 0.16, "unit": "µM"}, {"measurement": "IC50", "setting": "MV4-11", "value": 0.16, "unit": "µM"}]}
{"compound": "O=C(CCC(=O)Nc1nnc(-c2ccc(O)cc2)s1)NO", "values": [{"measurement": "IC50", "setting": "A549", "value": 14.7, "unit": "µM"}, {"measurement": "IC50", "setting": "K562", "value": 14.7, "unit": "µM"}, {"measurement": "IC50", "setting": "PC-3 [2]", "value": 14.7, "unit": "µM"}, {"measurement": "IC50", "setting": "MDA-MB-231", "value": 14.7, "unit": "µM"}, {"measurement": "IC50", "setting": "Histone deacetylase", "value": 0.2, "unit": "µM"}]}
{"compound": "C[C@H]1[C@@H](NC(=O)CCCC(=O)NO)O[C@@H]2O[C@@]3(C)CC[C@H]4[C@H](C)CC[C@@H]1[C@@]24OO3", "values": [{"measurement": "IC50", "setting": "MCF7", "value": 1.28, "unit": "mg/L"}, {"measurement": "IC50", "setting": "HepG2", "value": 1.28, "unit": "mg/L"}, {"measurement": "IC50", "setting": "HL-60", "value": 1.28, "unit": "mg/L"}]}
{"compound": "O=C(CCCCCCN1C(=O)C2(OCCO2)c2cccc(Cl)c21)NO", "values": [{"measurement": "IC50", "setting": "PC-3 [2]", "value": 0.05, "unit": "µM"}, {"measurement": "IC50", "setting": "Histone deacetylase 2", "value": 0.03, "unit": "µM"}, {"measurement": "IC50", "setting": "SW-620", "value": 0.05, "unit": "µM"}, {"measurement": "IC50", "setting": "ASPC1", "value": 0.05, "unit": "µM"}]}
{"compound": "O=C(Cn1cnc2c(c1=O)C1CCCCC1S2)NCc1ccc(C(=O)NO)cc1", "note": "(configuration not stated)", "values": [{"measurement": "IC50", "setting": "MCF7", "value": 4.86, "unit": "µM"}, {"measurement": "IC50", "setting": "HepG2", "value": 4.86, "unit": "µM"}, {"measurement": "IC50", "setting": "HCT-116", "value": 4.86, "unit": "µM"}]}
{"compound": "CCCCCSc1ncc(C(=O)NO)c(N(Cc2ccccc2)S(=O)(=O)c2ccc(OC)cc2)n1", "values": [{"measurement": "IC50", "setting": "RPMI-8226", "value": "> 7.8", "unit": "µM"}]}
{"compound": "CC(C)n1cnc2c(-c3cccc(OCCCCCCCC(=O)NO)c3)nc(N3CCOCC3)nc21", "values": [{"measurement": "IC50", "setting": "Histone deacetylase", "value": 0.035, "unit": "µM"}, {"measurement": "IC50", "setting": "PC-3 [1]", "value": 0.16, "unit": "µM"}, {"measurement": "IC50", "setting": "MV4-11", "value": 0.16, "unit": "µM"}]}
{"compound": "CC(C)n1cnc2c(-c3cccc(COCCCCCCCC(=O)NO)c3)nc(N3CCOCC3)nc21", "values": [{"measurement": "IC50", "setting": "Histone deacetylase", "value": 0.035, "unit": "µM"}, {"measurement": "IC50", "setting": "PC-3 [1]", "value": 0.16, "unit": "µM"}, {"measurement": "IC50", "setting": "MV4-11", "value": 0.16, "unit": "µM"}]}
{"compound": "O=C(/C=C/c1ccc(CN2C(=O)C3(OCCO3)c3ccccc32)cc1)NO", "values": [{"measurement": "IC50", "setting": "PC-3 [2]", "value": "> 3.05", "unit": "µM"}, {"measurement": "IC50", "setting": "SW-620", "value": "> 3.05", "unit": "µM"}, {"measurement": "IC50", "setting": "ASPC1", "value": "> 3.05", "unit": "µM"}]}
{"compound": "CC(C)c1ccc(C(C)c2nnc(NC(=O)CCC(=O)NO)s2)cc1", "note": "(configuration not stated)", "values": [{"measurement": "IC50", "setting": "A549", "value": 14.7, "unit": "µM"}, {"measurement": "IC50", "setting": "K562", "value": 14.7, "unit": "µM"}, {"measurement": "IC50", "setting": "PC-3 [2]", "value": 14.7, "unit": "µM"}, {"measurement": "IC50", "setting": "MDA-MB-231", "value": 14.7, "unit": "µM"}, {"measurement": "IC50", "setting": "Histone deacetylase", "value": 0.2, "unit": "µM"}]}
{"compound": "C[C@H]1[C@@H](NC(=O)CCCCC(=O)NO)O[C@@H]2O[C@@]3(C)CC[C@H]4[C@H](C)CC[C@@H]1[C@@]24OO3", "values": [{"measurement": "IC50", "setting": "MCF7", "value": 1.28, "unit": "mg/L"}, {"measurement": "IC50", "setting": "HepG2", "value": 1.28, "unit": "mg/L"}, {"measurement": "IC50", "setting": "HL-60", "value": 1.28, "unit": "mg/L"}]}
{"compound": "CCCCCSc1ncc(C(=O)NO)c(N(Cc2ccccc2)S(=O)(=O)c2cccc(OC)c2)n1", "values": [{"measurement": "IC50", "setting": "RPMI-8226", "value": "> 5.6", "unit": "µM"}]}
{"compound": "CC(C)n1cnc2c(-c3cccc(COCCCCC(=O)NO)c3)nc(N3CCOCC3)nc21", "values": [{"measurement": "IC50", "setting": "Histone deacetylase", "value": 0.035, "unit": "µM"}, {"measurement": "IC50", "setting": "PC-3 [1]", "value": 0.16, "unit": "µM"}, {"measurement": "IC50", "setting": "MV4-11", "value": 0.16, "unit": "µM"}]}
{"compound": "CC(C)n1cnc2c(-c3ccc(OCC(=O)NO)cc3)nc(N3CCOCC3)nc21", "values": [{"measurement": "IC50", "setting": "Histone deacetylase", "value": 0.278, "unit": "µM"}, {"measurement": "IC50", "setting": "PC-3 [1]", "value": 0.97, "unit": "µM"}, {"measurement": "IC50", "setting": "MV4-11", "value": 0.97, "unit": "µM"}]}
{"compound": "CCCCCSc1ncc(C(=O)NO)c(N(Cc2ccccc2)S(=O)(=O)c2ccc(F)cc2)n1", "values": [{"measurement": "IC50", "setting": "RPMI-8226", "value": "> 5.6", "unit": "µM"}]}
{"compound": "O=C(CCCCCCCn1cnc2c(c1=O)C1CCCCC1S2)NO", "note": "(configuration not stated)", "values": [{"measurement": "IC50", "setting": "MCF7", "value": 3.32, "unit": "µM"}, {"measurement": "IC50", "setting": "HepG2", "value": 3.32, "unit": "µM"}, {"measurement": "IC50", "setting": "HCT-116", "value": 3.32, "unit": "µM"}]}
{"compound": "C[C@H]1[C@@H](NC(=O)CCCCCC(=O)NO)O[C@@H]2O[C@@]3(C)CC[C@H]4[C@H](C)CC[C@@H]1[C@@]24OO3", "values": [{"measurement": "IC50", "setting": "MCF7", "value": 1.28, "unit": "mg/L"}, {"measurement": "IC50", "setting": "HepG2", "value": 1.28, "unit": "mg/L"}, {"measurement": "IC50", "setting": "HL-60", "value": 1.28, "unit": "mg/L"}]}
{"compound": "C[C@H]1[C@@H](NC(=O)CCCCCCCC(=O)NO)O[C@@H]2O[C@@]3(C)CC[C@H]4[C@H](C)CC[C@@H]1[C@@]24OO3", "values": [{"measurement": "IC50", "setting": "MCF7", "value": 1.28, "unit": "mg/L"}, {"measurement": "IC50", "setting": "HepG2", "value": 1.28, "unit": "mg/L"}, {"measurement": "IC50", "setting": "HL-60", "value": 1.28, "unit": "mg/L"}]}
{"compound": "CC(C)n1cnc2c(-c3ccc(OCCCCCC(=O)NO)cc3)nc(N3CCOCC3)nc21", "values": [{"measurement": "IC50", "setting": "Histone deacetylase", "value": 0.278, "unit": "µM"}, {"measurement": "IC50", "setting": "PC-3 [1]", "value": 0.97, "unit": "µM"}, {"measurement": "IC50", "setting": "MV4-11", "value": 0.97, "unit": "µM"}]}
{"compound": "CC(C)n1cnc2c(-c3ccc(OCCCCCCC(=O)NO)cc3)nc(N3CCOCC3)nc21", "values": [{"measurement": "IC50", "setting": "Histone deacetylase", "value": 0.278, "unit": "µM"}, {"measurement": "IC50", "setting": "PC-3 [1]", "value": 0.97, "unit": "µM"}, {"measurement": "IC50", "setting": "MV4-11", "value": 0.97, "unit": "µM"}]}
{"compound": "Cc1ccc(-c2nnc(NC(=O)CCCCCCC(=O)NO)s2)s1", "values": [{"measurement": "IC50", "setting": "MCF7", "value": 0.88, "unit": "µM"}, {"measurement": "IC50", "setting": "PC-3 [2]", "value": 0.88, "unit": "µM"}, {"measurement": "IC50", "setting": "SW-620", "value": 0.88, "unit": "µM"}, {"measurement": "IC50", "setting": "ASPC1", "value": 0.88, "unit": "µM"}]}
